Source: ChEMBL document CHEMBL5608179, “Triptonide induces apoptosis and inhibits the proliferation of ovarian cancer cells by activating the p38/p53 pathway and autophagy” (Bioorg Med Chem, 2024)
Calls of active or inactive are those of the source. The rule behind the calls is not given here.

Legend:
[1] = tested on: A2780; assay: Cytotoxicity against human A2780 cells assessed as cell viability in presence of bafilomycin A1 upto 60 nM measured after 48 hrs by MTT assay; format: functional, cell-based
[2] = tested on: A2780; assay: Induction of apoptosis in human A2780 cells assessed as increase in cleaved caspase 3 level measured at 5 to 20 nM by Western blot analysis; format: functional, cell-based; conditions: dose 5-20 nM, time 12-48 hrs, TDE = time-dependent effect
[3] = tested on: A2780; assay: Induction of cell cycle arrest in human A2780 cells assessed as accumulation of cells at G2 phase at 1 nM measured after 24 hrs by PI staining based ell Cycle Analysis Kit (KeyGEN) (reference value: 22.2%); format: functional
[4] = Toxicity in BALB/c-nu mouse subcutaneously inoculated with human A2780 cells assessed as morphological changes of spleen at 3 to 5 mg/kg, ip administered every day for 20 days by HE staining analysis; format: organism-based; conditions: in vivo, sc, 480 h, dose 3-5 mg/kg, time 20 day
[5] = tested on: A2780; assay: Induction of apoptosis in human A2780 cells assessed as necrotic cells at 800 nM measured after 24 hrs by Annexin V-FITC/PI flow cytometry (reference value: 0.18%); format: functional
[6] = tested on: A2780; assay: In vivo antitumor activity against human A2780 cells subcutaneously inoculated in BALB/c-nu mouse assessed as inhibition of tumor growth at 3 to 5 mg/kg, ip administered every day for 20 days; format: functional, organism-based; conditions: dose 3-5 mg/kg, time 20.0 day
[7] = tested on: A2780; assay: Induction of cell cycle arrest in human A2780 cells assessed as accumulation of cells at G1 phase at 4 nM measured after 24 hrs by PI staining based ell Cycle Analysis Kit (KeyGEN) (reference value: 53.9%); format: functional
[8] = tested on: A2780; assay: Induction of apoptosis in human A2780 cells assessed as necrotic cells in presence of p53 SiRNA 2 at 4 nM measured after 24 hrs by Annexin V-FITC/PI flow cytometry (reference value: 0.39%); format: functional
[9] = tested on: A2780; assay: Induction of apoptosis in human A2780 cells assessed as necrotic cells at 4 nM measured after 24 hrs by Annexin V-FITC/PI flow cytometry (reference value: 0.39%); format: functional
[10] = tested on: A2780; assay: Induction of apoptosis in human A2780 cells assessed as viable cells in presence of p53 SiRNA 1 at 4 nM measured after 24 hrs by Annexin V-FITC/PI flow cytometry (reference value: 94.2%); format: functional
[11] = tested on: A2780; assay: Antiproliferative activity against human A2780 cells assessed as number of fluorescent dots in presence of p53 SiRNA 1 at 4 nM measured after 24 hrs by KitkFluor555 Click-iT EdU Kit staining assay; format: functional, cell-based
[12] = tested on: A2780; assay: Induction of cell cycle arrest in human A2780 cells assessed as accumulation of cells at G1 phase at 4 nM measured after 24 hrs by PI staining based Cell Cycle Analysis Kit (KeyGEN) (reference value: 54.2%); format: functional
[13] = tested on: A2780; assay: Induction of apoptosis in human A2780 cells assessed as early apoptotic cells at 4 nM measured after 24 hrs by Annexin V-FITC/PI flow cytometry (reference value: 2.82%); format: functional
[14] = tested on: A2780; assay: Induction of apoptosis in human A2780 cells assessed as late apoptotic cells in presence of p53 SiRNA 1 at 4 nM measured after 24 hrs by Annexin V-FITC/PI flow cytometry (reference value: 2.54%); format: functional
[15] = tested on: A2780; assay: Reduction in p62 expression in human A2780 cells at 5 to 20 nM measured after 24 hrs by Western blot analysis; format: functional, cell-based; conditions: dose 5-20 nM
[16] = tested on: A2780; assay: Induction of apoptosis in human A2780 cells assessed as increase in cleaved caspase 9 level measured after 12 to 48 hrs by Western blot analysis; format: functional, cell-based; conditions: dose 5-20 nM, time 12-48 hrs
[17] = tested on: A2780; assay: Induction of apoptosis in human A2780 cells assessed as viable cells at 800 nM measured after 24 hrs by Annexin V-FITC/PI flow cytometry (reference value: 96.1%); format: functional; conditions: read-out: Activity
[18] = tested on: A2780; assay: Induction of apoptosis in human A2780 cells assessed as increase in cleaved PARP level measured after 12 to 48 hrs by Western blot analysis; format: functional, cell-based; conditions: dose 5-20 nM, time 12-48 hrs
[19] = tested on: A2780; assay: Reduction in p62 expression in human A2780 cells in presence of autophagy inhibitor bafilomycin A1 at 5 to 20 nM measured after 24 hrs by Western blot analysis; format: functional, cell-based; conditions: dose 5-20 nM
[20] = molecular target: Cellular tumor antigen p53 (Homo sapiens) (UniProt P04637); assay: Activation of p53 in human A2780 cells assessed as increase phosphorylation of p38 at 5 to 20 nM measured after 24 hrs by Western blot analysis; format: cell-based; conditions: filed as activator, dose 5-20 nM
Cellular tumor antigen p53 (Homo sapiens), sequence (P04637 whole entry, looked up): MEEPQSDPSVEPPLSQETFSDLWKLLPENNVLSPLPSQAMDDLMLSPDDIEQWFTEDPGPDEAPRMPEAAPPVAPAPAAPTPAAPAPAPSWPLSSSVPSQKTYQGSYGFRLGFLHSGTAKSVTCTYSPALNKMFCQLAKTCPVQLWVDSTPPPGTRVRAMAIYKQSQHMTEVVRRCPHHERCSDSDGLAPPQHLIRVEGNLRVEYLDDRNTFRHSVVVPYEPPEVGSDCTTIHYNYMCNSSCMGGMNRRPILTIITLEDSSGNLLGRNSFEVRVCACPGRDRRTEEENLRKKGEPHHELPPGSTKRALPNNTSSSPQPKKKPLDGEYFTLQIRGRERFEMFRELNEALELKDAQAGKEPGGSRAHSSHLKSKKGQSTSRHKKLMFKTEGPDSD

[21] = tested on: A2780; assay: Induction of cell cycle arrest in human A2780 cells assessed as accumulation of cells at G2 phase at 4 nM measured after 24 hrs by PI staining based Cell Cycle Analysis Kit (KeyGEN) (reference value: 24.5%); format: functional
[22] = tested on: A2780; assay: Induction of cell cycle arrest in human A2780 cells assessed as accumulation of cells at G1 phase at 1 nM measured after 24 hrs by PI staining based ell Cycle Analysis Kit (KeyGEN) (reference value: 53.9%); format: functional
[23] = tested on: A2780; assay: Induction of apoptosis in human A2780 cells assessed as late apoptotic cells in presence of SB203580 at 8 nM measured after 24 to 72 hrs by Annexin V-FITC/PI flow cytometry (reference value: 2.54%); format: functional; conditions: time 24-72 hrs
[24] = tested on: A2780; assay: Induction of cell cycle arrest in human A2780 cells assessed as accumulation of cells at S phase at 4 nM measured after 24 hrs by PI staining based Cell Cycle Analysis Kit (KeyGEN) (reference value: 15%); format: functional
[25] = tested on: A2780; assay: In vivo antitumor activity against human A2780 cells subcutaneously inoculated in BALB/c-nu mouse assessed as reduction in tumor volume at 3 to 5 mg/kg, ip administered every day for 20 days; format: functional, organism-based; conditions: dose 3-5 mg/kg, time 20.0 day
[26] = tested on: A2780; assay: Induction of apoptosis in human A2780 cells assessed as late apoptotic cells in presence of p53 SiRNA 2 at 4 nM measured after 24 hrs by Annexin V-FITC/PI flow cytometry (reference value: 2.54%); format: functional
[27] = tested on: A2780; assay: Induction of apoptosis in human A2780 cells assessed as early apoptotic cells in presence of p53 SiRNA 2 at 4 nM measured after 24 hrs by Annexin V-FITC/PI flow cytometry (reference value: 2.82%); format: functional
[28] = tested on: A2780; assay: Antiproliferative activity against human A2780 cells assessed as number of fluorescent dots in presence of p53 SiRNA 2 at 4 nM measured after 24 hrs by KitkFluor555 Click-iT EdU Kit staining assay; format: functional, cell-based
[29] = tested on: A2780; assay: Induction of p38 expression in human A2780 cells at 5 to 20 nM measured after 24 hrs by Western blot analysis; format: functional, cell-based; conditions: dose 5-20 nM
[30] = tested on: A2780; assay: Induction of apoptosis in human A2780 cells assessed as increase in cleaved caspase 9 level measured at 5 to 20 nM by Western blot analysis; format: functional, cell-based; conditions: dose 5-20 nM, time 12-48 hrs, TDE = time-dependent effect
[31] = tested on: A2780; assay: Induction of apoptosis in human A2780 cells assessed as viable cells in presence of p53 SiRNA 2 at 4 nM measured after 24 hrs by Annexin V-FITC/PI flow cytometry (reference value: 94.2%); format: functional

## CC(C)[C@]12O[C@H]1[C@@H]1O[C@]13[C@]1(O[C@H]1C[C@H]1C4=C(CC[C@@]13C)C(=O)OC4)[C@@H]2O [TRIPTOLIDE]
[1]
  Activity: inactive
[2]
  Activity: Tde
[3]
  Activity: 15.4%
[4]
  Activity: Non-Toxic
[5]
  Activity: 2.33%
[6]
  Activity: Active
[7]
  Activity: 68.9%
[8]
  Activity: 6.47%
[9]
  Activity: 9.88%
[10]
  Activity: 65.9%
[11]
  Activity: inactive
[12]
  Activity: 40%
[13]
  Activity: 29.5%
[14]
  Activity: 14.3%
[15]
  Activity: Active
[16]
  Activity: Dose-Dependent Effect
[17]
  viability at 0.8 µM: 74%
[18]
  Activity: Dose-Dependent Effect
[19]
  Activity: inactive
[20]
  Activity: Active
[21]
  Activity: 27.4%
[22]
  Activity: 67.3%
[23]
  Activity: 12%
[24]
  Activity: 29.4%
[25]
  Activity: Active
[26]
  Activity: 14.4%
[27]
  Activity: 12.6%
[28]
  Activity: inactive
[29]
  Activity: Active
[30]
  Activity: Tde
[31]
  Activity: 66.5%
